# According to US20030087308A1, “Method for high through put screening using a small scale mill or microfluidics” (Elan Pharma International Limited, priority 2001, published 2003):
# Like-named read-outs stand apart in the source and are kept apart here.
# Assays:
# [1] = Particle size of nanoparticle suspension after small scale high energy milling (microscopy, laser light diffraction); format: physicochemical
# [2] = PVP K29/32 and SLS 5:2:0.05, 6000 rpm
# Description: The mixture was milled in a NanoMill™ (Elan Drug Delivery, Inc.). Using a media load of 100% at the maximum rpm of 6000 maximized the energy input.
# Further calculations were based on a bulk density of 0.61 g/ml for PolyMill™ 500 μ media (Dow Chemical) and a void volume of 40%. Since the amounts were low and mixing difficult, PVP and SLS were prepared as 20% and 5% stock solutions, respectively. The calculations for milling in a 10 mL, 18 mL, and 26 mL milling chambers are summarized in the following chart: […]
# [3] = Quality of milled dispersion by photomicrography; format: physicochemical
# Description: Analysis of resultant particle size was via photomicrography.
# […] The composition was then milled in a 10 mL chamber of a NanoMill™.
# [4] = 10 mL chamber, 25 mg naproxen, after 1 hr
"Particle Size ([1]; 50 mg milled, 15 min milling time) [nm]","Particle Size ([1]; 200 mg milled, 60 min milling time) [nm]","mean diameter of nanoparticle suspension ([1]; <50 mg of drug milled 15 min, small-volume high energy mill, unimodal distribution)","mean particle size (bimodal peak) [2, 4] [nm]","median particle size (bimodal peak) [2, 4] [nm]","single peak mean particle size ([2]; 18 mL chamber, 45 mg naproxen) [nm]","single peak mean particle size ([2]; 26 mL chamber, 65 mg naproxen) [nm]","dispersion quality ([3]; 5 mg, 10 mL chamber, PVP K29/32 and SLS 5:2:0.05)","dispersion quality ([3]; 25 mg, 10 mL chamber, 15 min)","dispersion quality ([3]; 25 mg, 18 mL chamber, 15 min)","dispersion quality ([3]; 25 mg, 18 mL chamber, 30 min)","dispersion quality ([3]; 25 mg, 26 mL chamber, 5 min)","dispersion quality ([3]; 25 mg, 26 mL chamber, 15 min)","resultant particle size ([3]; 10 mg, Pluronic F-108 at 5:2, 10 mL chamber, 5 to 30 min)",Structure (SMILES)
159,147,less than 200 nm,1496,354,314,630,well dispersed nano-suspension,reasonable naproxen dispersion,reasonable naproxen dispersion,over-milled and aggregated,excellent homogeneity,clearly degenerating,,COc1ccc2cc([C@H](C)C(=O)O)ccc2c1 [Naproxen]
,,,,,,,,,,,,,predominantly sub-micron,"CCOC(=O)CCCCCOC(=O)c1c(I)c(NC(C)=O)c(I)c(NC(C)=O)c1I [Photogen, 6-ethoxy-6-oxohexyl-3,5-bis(acetamido)-2,4,6-triiodobenzoate]"
